In patent US6737383B1, “Herbicidal oxadiazolidines” (priority 1999, dated 2004):

Tests used:
common groundsel = experiment: Test D common groundsel; type: in vivo, Senecio vulgaris; conditions: Preemergence, 0 to 100 scale
Procedure, shortened: (§1)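 Each weed species is planted in its own pot or compartment; preemergence doses go on the sandy loam surface within a day. The formulation is a surfactant-containing, non-phytotoxic solvent blend. Ratings come from visual comparison with untreated controls 14 to 21 days later, where 100 means complete control.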

Green foxtail = experiment: Test D green foxtail; type: in vivo; conditions: Preemergence, 0 to 100 scale
Procedure, shortened: as §1

purple nutsedge = experiment: Test D purple nutsedge; type: in vivo, Cyperus rotundus; conditions: Preemergence, 0 to 100 scale
Procedure, shortened: as §1

common pursiane = experiment: Test D common purslane; type: in vivo, Portulaca oleracea
Procedure, shortened: as §1

surinam grass = experiment: Test D surinam grass; type: in vivo, Brachiaria decumbens; conditions: Preemergence, 0 to 100 scale
Procedure, shortened: as §1

bermuda-grass = experiment: Test D bermudagrass; type: in vivo, Cynodon dactylon; conditions: Preemergence, 0 to 100 scale
Procedure, shortened: as §1

goosegrass = experiment: Test D goosegrass; type: in vivo, Eleusine indica; conditions: Preemergence, 0 to 100 scale
Procedure, shortened: as §1

sandbur = experiment: Test D sandbur; type: in vivo, Cenchrus echinatus; conditions: Preemergence, 0 to 100 scale
Procedure, shortened: as §1

common ragweed = experiment: Test D common ragweed; type: in vivo, Ambrosia elatior; conditions: Preemergence, 0 to 100 scale
Procedure, shortened: as §1

Spanishneedles = experiment: Test D Spanishneedles; type: in vivo, Bidens bipinnata; conditions: Preemergence, 0 to 100 scale
Procedure, shortened: as §1

guineagrass = experiment: Test D guineagrass; type: in vivo, Panicum maximum; conditions: Preemergence, 0 to 100 scale
Procedure, shortened: as §1

pitted morningglory = experiment: Test D pitted morningglory; type: in vivo, Ipomoea lacunosa; conditions: Preemergence, 0 to 100 scale
Procedure, shortened: as §1

Johnson grass = experiment: Test D Johnson grass; type: in vivo, Sorghum halepense; conditions: Preemergence, 0 to 100 scale
Procedure, shortened: as §1

itchgrass = experiment: Test D itchgrass; type: in vivo, Rottboellia exaltata; conditions: Preemergence, 0 to 100 scale
Procedure, shortened: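 Scoring used a 0–100 visual injury scale, with 0 meaning no effect and 100 complete control, assessed 14–21 days after application alongside untreated pots. Preemergence treatments went onto sandy loam surfaces of separately potted seeds within a day of sowing.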

Alexandergrass = experiment: Test D Alexandergrass; type: in vivo, Brachiaria plantaginea; conditions: Preemergence, 0 to 100 scale
Procedure, shortened: as §1

tall mallow = experiment: Test D tall mallow; type: in vivo, Malva sylvestris; conditions: Preemergence, 0 to 100 scale
Procedure, shortened: as §1

dallisgrass = experiment: Test D dallisgrass; type: in vivo, Paspalum dilatatum; conditions: Preemergence, 0 to 100 scale
Procedure, shortened: as §1

large crabgrass = experiment: Test D large crabgrass; type: in vivo, Digitaria sanguinalis; conditions: Preemergence, 0 to 100 scale
Procedure, shortened: as §1

[1] = Rate 16 g/ha, 0 no injury, 100 complete control
[2] = Rate 32 g/ha, 0 no injury, 100 complete control
[3] = Rate 64 g/ha, 0 no injury, 100 complete control
[4] = Rate 125 g/ha, 0 no injury, 100 complete control

CC(C)N(C(=O)n1oc(=O)n(C(C)C)c1=O)c1ccc(F)cc1 [Compound 131]
Plant response rating, Com. groundsel (common groundsel; [1]): 75 | Plant response rating, Com. groundsel (common groundsel; [2]): 75 | Plant response rating, Com. groundsel (common groundsel; [3]): 85 | Plant response rating, Com. groundsel (common groundsel; [4]): 100 | Plant response rating, Com. groundsel (common groundsel; Rate 250 g/ha): 100 | Plant response rating, Com. groundsel (common groundsel; Rate 500 g/ha): 100 | Plant response rating, Green foxtail (Green foxtail; Rate 250 g/ha): 100 | Plant response rating, Green foxtail (Green foxtail; Rate 500 g/ha): 100 | Plant response rating, Purple nutsedge (purple nutsedge; [1]): 0 | Plant response rating, Purple nutsedge (purple nutsedge; [2]): 0 | Purple nutsedge plant response rating (purple nutsedge; [3]): 40 | Purple nutsedge plant response rating (purple nutsedge; [4]): 60 | Plant response rating, Purple nutsedge (purple nutsedge; Rate 250 g/ha): 85 | Plant response rating, Purple nutsedge (purple nutsedge; Rate 500 g/ha): 85 | Plant response rating, C. purslane (common pursiane; Rate 16 g/ha; Preemergence; 0 to 100 scale, 0 no injury, 100 complete control): 0 | Plant response rating, C. purslane (common pursiane; Rate 32 g/ha; Preemergence; 0 to 100 scale, 0 no injury, 100 complete control): 0 | Plant response rating, C. purslane (common pursiane; Rate 64 g/ha, Preemergence; 0 to 100 scale, 0 no injury, 100 complete control): 0 | Plant response rating, C. purslane (common pursiane; Rate 125 g/ha, Preemergence; 0 to 100 scale, 0 no injury, 100 complete control): 0 | Plant response rating, C. purslane (common pursiane; Rate 250 g/ha; Preemergence; 0 to 100 scale): 10 | Plant response rating, C. purslane (common pursiane; Rate 500 g/ha, Preemergence; 0 to 100 scale): 100 | Plant response rating, C. purslane (common pursiane; Rate 500 g/ha; Preemergence; 0 to 100 scale): 10 | Plant response rating, Surinam grass (surinam grass; [1]): 20 | Plant response rating, Surinam grass (surinam grass; [2]): 75 | Surinam grass plant response rating (surinam grass; [3]): 85 | Surinam grass plant response rating (surinam grass; [4]): 100 | Plant response rating, Surinam grass (surinam grass; Rate 250 g/ha): 100 | Plant response rating, Surinam grass (surinam grass; Rate 500 g/ha): 100 | Plant response rating, Bermudagrass (bermuda-grass; [1]): 100 | Plant response rating, Bermudagrass (bermuda-grass; [2]): 100 | Plant response rating, Bermudagrass (bermuda-grass; [3]): 100 | Plant response rating, Bermudagrass (bermuda-grass; [4]): 100 | Plant response rating, Bermudagrass (bermuda-grass; Rate 250 g/ha): 100 | Plant response rating, Bermudagrass (bermuda-grass; Rate 500 g/ha): 100 | Plant response rating, Goosegrass (goosegrass; [1]): 75 | Plant response rating, Goosegrass (goosegrass; [2]): 98 | Plant response rating, Goosegrass (goosegrass; [3]): 100 | Plant response rating, Goosegrass (goosegrass; [4]): 100 | Plant response rating, Goosegrass (goosegrass; Rate 250 g/ha): 100 | Plant response rating, Goosegrass (goosegrass; Rate 500 g/ha): 100 | Plant response rating, Sandbur (sandbur; [1]): 0 | Plant response rating, Sandbur (sandbur; [2]): 60 | Sandbur plant response rating (sandbur; [3]): 85 | Sandbur plant response rating (sandbur; [4]): 100 | Plant response rating, Sandbur (sandbur; Rate 250 g/ha): 100 | Plant response rating, Sandbur (sandbur; Rate 500 g/ha): 100 | Plant response rating, C. ragweed (common ragweed; [1]): 0 | Plant response rating, C. ragweed (common ragweed; [2]): 0 | Plant response rating, C. ragweed (common ragweed; [3]): 30 | Plant response rating, C. ragweed (common ragweed; [4]): 30 | Plant response rating, C. ragweed (common ragweed; Rate 250 g/ha): 100 | Plant response rating, C. ragweed (common ragweed; Rate 500 g/ha): 100 | Plant response rating, Spanishneedles (Spanishneedles; [1]): 0 | Plant response rating, Spanishneedles (Spanishneedles; [2]): 0 | Spanishneedles plant response rating (Spanishneedles; [3]): 40 | Spanishneedles plant response rating (Spanishneedles; [4]): 60 | Plant response rating, Spanishneedles (Spanishneedles; Rate 500 g/ha): 90 | Plant response rating, Guineagrass (guineagrass; [1]): 0 | Plant response rating, Guineagrass (guineagrass; [2]): 100 | Plant response rating, Guineagrass (guineagrass; [3]): 100 | Plant response rating, Guineagrass (guineagrass; [4]): 100 | Plant response rating, Guineagrass (guineagrass; Rate 250 g/ha): 100 | Plant response rating, Guineagrass (guineagrass; Rate 500 g/ha): 100 | Plant response rating, P. morninglory (pitted morningglory; [1]): 0 | Plant response rating, P. morninglory (pitted morningglory; [2]): 0 | Plant response rating, P. morninglory (pitted morningglory; [3]): 0 | Plant response rating, P. morninglory (pitted morningglory; [4]): 50 | Plant response rating, P. morninglory (pitted morningglory; Rate 250 g/ha): 85 | Plant response rating, P. morninglory (pitted morningglory; Rate 500 g/ha): 100 | Plant response rating Johnsongrass (Johnson grass; [1]): 10 | Plant response rating Johnsongrass (Johnson grass; [2]): 40 | Plant response rating Johnsongrass (Johnson grass; [3]): 65 | Plant response rating Johnsongrass (Johnson grass; [4]): 90 | Plant response rating Johnsongrass (Johnson grass; Rate 250 g/ha): 98 | Plant response rating Johnsongrass (Johnson grass; Rate 500 g/ha): 100 | Plant response rating, Itchgrass (itchgrass; [1]): 30 | Plant response rating, Itchgrass (itchgrass; [2]): 50 | Plant response rating, Itchgrass (itchgrass; [3]): 90 | Plant response rating, Itchgrass (itchgrass; [4]): 90 | Plant response rating, Itchgrass (itchgrass; Rate 250 g/ha): 100 | Plant response rating, Itchgrass (itchgrass; Rate 500 g/ha): 100 | Plant response rating, Alexandergrass (Alexandergrass; [1]): 20 | Plant response rating, Alexandergrass (Alexandergrass; [2]): 90 | Plant response rating, Alexandergrass (Alexandergrass; [3]): 98 | Plant response rating, Alexandergrass (Alexandergrass; [4]): 100 | Plant response rating, Alexandergrass (Alexandergrass; Rate 250 g/ha): 100 | Plant response rating, Alexandergrass (Alexandergrass; Rate 500 g/ha): 100 | Plant response rating, Tall Mallow (tall mallow; [1]): 30 | Plant response rating, Tall Mallow (tall mallow; [2]): 30 | Tall Mallow plant response rating (tall mallow; [3]): 80 | Tall Mallow plant response rating (tall mallow; [4]): 80 | Plant response rating, Tall Mallow (tall mallow; Rate 250 g/ha): 90 | Plant response rating, Tall Mallow (tall mallow; Rate 500 g/ha): 100 | Plant response rating, Dallisgrass (dallisgrass; [1]): 85 | Plant response rating, Dallisgrass (dallisgrass; [2]): 95 | Plant response rating, Dallisgrass (dallisgrass; [3]): 100 | Plant response rating, Dallisgrass (dallisgrass; [4]): 100 | Plant response rating, Dallisgrass (dallisgrass; Rate 250 g/ha): 100 | Plant response rating, Dallisgrass (dallisgrass; Rate 500 g/ha): 100 | Plant response rating Large crabgrass (large crabgrass; [1]): 100 | Plant response rating Large crabgrass (large crabgrass; [2]): 100 | Plant response rating Large crabgrass (large crabgrass; [3]): 100 | Plant response rating Large crabgrass (large crabgrass; [4]): 100 | Plant response rating Large crabgrass (large crabgrass; Rate 250 g/ha): 100 | Plant response rating Large crabgrass (large crabgrass; Rate 500 g/ha): 100
